Experimental data taken from ChEMBL document CHEMBL4715875, “Evaluation of the in Vivo Aphrodisiac Activity of a Cyclotide Extract from Hybanthus enneaspermus” (2020).
Positions of bridges follow the written chain, without caps; N, C: chain ends. Residues, ends and D or L forms follow the SMILES beside them.

Experiments:
Assay type in all cases: functional
Rattus norvegicus [1] = test: Induction of libido-enhancing activity in Wistar rat assessed as number of intromission at 5 mg/kg, po pre-treated for 30 mins followed by female rat introduction and measured up to 3 hrs (reference value: 49 +/- 8.5); conditions: time hrs <=3.5
Rattus norvegicus [2] = test: Induction of libido-enhancing activity in Wistar rat assessed as intromission ratio at 5 mg/kg, po pre-treated for 30 mins followed by female rat introduction and measured up to 3 hrs (reference value: 86 +/- 4.1%); conditions: time min <=210
Rattus norvegicus [3] = test: Induction of libido-enhancing activity in Wistar rat assessed as mount frequency at 5 mg/kg, po pre-treated for 30 mins followed by female rat introduction and measured up to 3 hrs (reference value: 5.8 +/- 2.1); conditions: time min <=210
Rattus norvegicus [4] = test: Induction of libido-enhancing activity in Wistar rat assessed as copulatory plugs at 5 mg/kg, po pre-treated for 30 mins followed by female rat introduction and measured up to 3 hrs (reference value: 4.2 +/- 0.6 sec); conditions: time min <=210
Rattus norvegicus [5] = test: Induction of libido-enhancing activity in Wistar rat assessed as total number of mount at 5 mg/kg, po pre-treated for 30 mins followed by female rat introduction (reference value: 3.9 +/- 1.2); conditions: 0.5 h
Rattus norvegicus [6] = test: Induction of libido-enhancing activity in Wistar rat assessed as number of ejaculations at 5 mg/kg, po pre-treated for 30 mins followed by female rat introduction and measured up to 1 hr (reference value: 2.2 +/- 0.4); conditions: time hrs <=1.5
Rattus norvegicus [7] = test: Induction of libido-enhancing activity in Wistar rat assessed as number of intromission at 5 mg/kg, po pre-treated for 30 mins followed by female rat introduction and measured up to 1 hr (reference value: 63 +/- 7.7); conditions: time hrs <=1.5
Rattus norvegicus [8] = test: Induction of libido-enhancing activity in Wistar rat assessed as number of ejaculations at 5 mg/kg, po pre-treated for 30 mins followed by female rat introduction and measured up to 2 hrs (reference value: 2.2 +/- 0.3); conditions: time hrs <=2.5
Rattus norvegicus [9] = test: Induction of libido-enhancing activity in Wistar rat assessed as first behavior latency time at 5 mg/kg, po pre-treated for 30 mins followed by female rat introduction and measured up to 3 hrs (reference value: 200 +/- 40 sec); conditions: time min <=210
Rattus norvegicus [10] = test: Induction of libido-enhancing activity in Wistar rat assessed as number of ejaculations at 5 mg/kg, po pre-treated for 30 mins followed by female rat introduction and measured up to 3 hrs (reference value: 1.2 +/- 0.3); conditions: time hrs <=3.5
Rattus norvegicus [11] = test: Induction of libido-enhancing activity in Wistar rat assessed as number of intromission at 5 mg/kg, po pre-treated for 30 mins followed by female rat introduction (reference value: 170 +/- 32); conditions: 0.5 h
Rattus norvegicus [12] = test: Induction of libido-enhancing activity in Wistar rat assessed as ejaculation post interval time at 5 mg/kg, po pre-treated for 30 mins followed by female rat introduction and measured up to 3 hrs (reference value: 760 +/- 50 sec); conditions: time min <=210
Rattus norvegicus [13] = test: Induction of libido-enhancing activity in Wistar rat assessed as intromission latency time at 5 mg/kg, po pre-treated for 30 mins followed by female rat introduction and measured up to 3 hrs (reference value: 270 +/- 68 sec); conditions: time min <=210
Rattus norvegicus [14] = test: Induction of libido-enhancing activity in Wistar rat assessed as ejaculation latency latency time at 5 mg/kg, po pre-treated for 30 mins followed by female rat introduction and measured up to 3 hrs (reference value: 1300 +/- 320 sec); conditions: time min <=210
Rattus norvegicus [15] = test: Induction of libido-enhancing activity in Wistar rat assessed as number of mount at 5 mg/kg, po pre-treated for 30 mins followed by female rat introduction and measured up to 1 hr (reference value: 16 +/- 6.9); conditions: time hrs <=1.5
Rattus norvegicus [16] = test: Induction of libido-enhancing activity in Wistar rat assessed as number of mount at 5 mg/kg, po pre-treated for 30 mins followed by female rat introduction and measured up to 2 hrs (reference value: 9.1 +/- 3); conditions: time hrs <=2.5
Rattus norvegicus [17] = test: Induction of libido-enhancing activity in Wistar rat assessed as number of intromission at 5 mg/kg, po pre-treated for 30 mins followed by female rat introduction and measured up to 2 hrs (reference value: 76 +/- 11); conditions: time hrs <=2.5
Rattus norvegicus [18] = test: Induction of libido-enhancing activity in Wistar rat assessed as number of ejaculations at 5 mg/kg, po pre-treated for 30 mins followed by female rat introduction (reference value: 5.5 +/- 0.6); conditions: 0.5 h
Rattus norvegicus [19] = test: Induction of libido-enhancing activity in Wistar rat assessed as number of mount at 5 mg/kg, po pre-treated for 30 mins followed by female rat introduction and measured up to 3 hrs (reference value: 3.9 +/- 1.2); conditions: time hrs <=3.5
Rattus norvegicus [20] = test: Induction of libido-enhancing activity in Wistar rat assessed as intromission frequency at 5 mg/kg, po pre-treated for 30 mins followed by female rat introduction and measured up to 3 hrs (reference value: 35 +/- 5); conditions: time min <=210

Structure (SMILES)	Activity (Rattus norvegicus [1])	Activity (Rattus norvegicus [2])	Activity (Rattus norvegicus [3])	Activity (Rattus norvegicus [4])	Activity (Rattus norvegicus [5])	Activity (Rattus norvegicus [6])	Activity (Rattus norvegicus [7])	Activity (Rattus norvegicus [8])	Time (Rattus norvegicus [9])	Activity (Rattus norvegicus [10])	Activity (Rattus norvegicus [11])	Time (Rattus norvegicus [12])	Time (Rattus norvegicus [13])	Time (Rattus norvegicus [14])	Activity (Rattus norvegicus [15])	Activity (Rattus norvegicus [16])	Activity (Rattus norvegicus [17])	Activity (Rattus norvegicus [18])	Activity (Rattus norvegicus [19])	Activity (Rattus norvegicus [20])
CC(=O)CC(O)(CC(C)=O)C(C)=O.CCCc1nn(C)c2c(=O)nc(-c3cc(S(=O)(=O)N4CCN(C)CC4)ccc3OCC)[nH]c12	38	85%	4.7	6	26	2	65	2.8	96 s	2.2	180	860 s	96 s	940 s	8.3	6.7	63	7.7	2.3	23
CC[C@H](C)[C@@H]1NC(=O)[C@H](C)NC(=O)[C@H](C)NC(=O)[C@H]([C@@H](C)O)NC(=O)[C@H](Cc2ccccc2)NC(=O)[C@@H]2CSSC[C@@H](C(=O)N[C@@H](Cc3ccc(O)cc3)C(=O)N[C@@H](CCCCN)C(=O)N[C@@H](CC(N)=O)C(=O)O)NC(=O)[C@H](C(C)C)NC(=O)[C@H](CCCCN)NC(=O)[C@H](CO)NC(=O)[C@H](CCCCN)NC(=O)[C@@H]3CSSC[C@H](NC(=O)[C@H](CO)NC(=O)[C@H](CCC(=O)O)NC(=O)CNC(=O)[C@@H](NC(=O)[C@@H]4CCCN4C(=O)[C@H](Cc4ccccc4)NC(=O)CN)CSSC[C@H](NC(=O)CNC1=O)C(=O)N[C@@H](CO)C(=O)N3)C(=O)N[C@@H](C(C)C)C(=O)N[C@@H](Cc1ccc(O)cc1)C(=O)N[C@@H]([C@@H](C)CC)C(=O)N1CCC[C@H]1C(=O)N2 (H-GFPCGESCVYIPCFTAAIGCSCKSKVCYKN-OH; disulfide 4-20, 8-22, 13-27)	44	91%	3.1	5.5	19	1.5	69	3	76 s	2	180	690 s	78 s	1000 s	3.2	5.8	67	6.5	9.7	28
